Source: patent publication US20050089473A1, “Potassium channel mediated delivery of agents through the blood-brain barrier” (Cedars-Sinai Medical Center, priority 2003, published 2005)
Where a name gives a salt, the structure may show the parent alone.

Experiments:
GBM and RG2 brain tumors = test: GFP-adenoviral and erbB-2 antibody delivery across the BTB; format: in vivo, rat
Protocol: GFP-Adv constructs were prepared as described by Smith et al. (Smith, G. M., Berry, R. L., Yang, J., and Tanelian, D. Electrophysiological analysis of dorsal root ganglion neurons pre- and post-coexpression of green fluorescent protein and functional 5-HHT3 recepter. J. Neurophysiol. 77:3115-3121, 1997) with slight modifications. GFP gene was first cloned into a shuttle vector, pAdTrack-CMV, and the resultant plasmid was linearized by digesting it with restriction endonuclease Pipe I, and subsequently co-transformed into E. Coli cells with an adenoviral backbone plasmid, pAdEasy-1. Recombinant plasmids were transfected into 293 cells. The presence of recombinant adenoviruses was verified by RT-PCR. GFP-Adv (1×10^9 pfu/ml) was infused intracarotidly (i.c.) with or without MS in rats with implanted GBM. Neu rabbits polyclonal and Her-2 MAb, which are specific for rat and human erbB-2 receptors, respectively, were used. […] Her-2 MAbs bound to Her-2 receptors, in vivo was detected by incubating rat brain cryosections as per the manufacturer's (Molecular Probes, OR) procedure with Alexa Flour-647 conjugated secondary antibody (Zecon labeling kit) that specifically binds to the IgG1 fragment of Her-2 MAb. Neu antibody binding to erbB-2 receptors in RG2 brain tumor sections was detected using anti-rabbit IgG conjugated with TRITC. […]

GBM xenograft = test: In vivo BTB permeability (Ki by QAR) in GBM-xenograft nude rat model
Protocol: All animal experiments were conducted in accordance with policies set by the Institutional Animal Care and Usage Committee and NIH guidelines. A rat syngeneic tumor model was prepared using female Wistar rats and a human-tumor xenograft model in athymic nude rats weighing 180-200 g were prepared for the BBB/BTB permeability studies. Although brain tumor blood vessel development is rapid in rats compared to humans, this variable should not affect the findings or conclusions because the study analyzes the response of blood vessels, regardless of how rapidly they developed, to vasomodulators. The optimum number of tumor cells and incubation period for in vivo tumor growth was determined in separate experiments. Rat glioma (RG2) cells (1×10^5) in 5 μl of medium with 1.2% methylcellulose were injected into the basal ganglia of Wistar rats, while nude rats were injected with glioblastoma multiforme (GBM) primary cells (5×10^5). The coordinates were 5-mm lateral to the bregma and 4.5 mm deep to the basal ganglia. […]
The unilateral transfer constant, Ki (μl/g/min), which is an initial rate for blood-to-brain transfer of a radiotracer, was calculated as described by Ohno et al. (Ohno, K., Pettigrew, K. O., and Rapsport, S. T. Lower limits of cerebrovascular permeability to […] in the conscious rat. Am. J. Physiol., 253: H299-H307, 1978). […]

intracerebral RG2 tumors = test: In vivo BTB permeability (Ki by quantitative autoradiography) in RG2 tumor-bearing rats; parameters: species or system rat; conditions: i.c. MS 30 μg/kg/min, RG2 tumor
Protocol: All animal experiments were conducted in accordance with policies set by the Institutional Animal Care and Usage Committee and NIH guidelines. A rat syngeneic tumor model was prepared using female Wistar rats and a human-tumor xenograft model in athymic nude rats weighing 180-200 g were prepared for the BBB/BTB permeability studies. […] Rat glioma (RG2) cells (1×10^5) in 5 μl of medium with 1.2% methylcellulose were injected into the basal ganglia of Wistar rats, while nude rats were injected with glioblastoma multiforme (GBM) primary cells (5×10^5). The coordinates were 5-mm lateral to the bregma and 4.5 mm deep to the basal ganglia. […] In regional permeability studies, 5 min after the start of the intracarotid (i.c.) infusion, 100 μCi/kg of [^14C] […]
The Ki was determined for radiotracers, [^14C]-AIB, [^14C]-carboplatin, and [^14C] dextran in the tumor core, tumor-adjacent brain tissue, and contralateral brain tissue using the quantitative autoradiographic (QAR) method as described earlier (Ningarsj, N. S., Rao, M., Hashizume, K., Asotra, K., and Black, K. L. Regulation of blood-brain tumor barrier permeability by calcium-activated potassium channels J. Pharmacol. Exp. Ther., 301:838-851, 2002; Ningaraj, N. S., Rao, M., and Black, K. L. Calcium-dependent potassium channels as a target protein ir. the modulation of blood-brain humor barrier.

SMILES: Nc1cc(N2CCCCC2)nc(N)[n+]1OS(=O)(=O)[O-] [MS, minoxidil sulfate]
- Delivery of Her-2 MAb and Neu antibody to brain tumor (GBM and RG2 brain tumors; MS 30 μg/kg/min i.c. 15 min, then antibody 1 mg/kg): enhanced delivery of Her-2 MAb selectively to GBM and Neu to RG2
- Delivery of adv-GFP to brain tumor (GBM and RG2 brain tumors; MS i.c. with GFP-Adv 1×10^9 pfu/ml, GBM nude rats): enhanced adv-GFP delivery to brain tumors
- BTB permeability (Ki) (GBM xenograft; GBM xenograft nude rat, i.c. MS 30 μg/kg/min, glibenclamide 5 μg/kg/min for 15 min): 52 ± 8 µL/g/min
- BBB permeability in normal brain surrounding tumor or normal contralateral brain (GBM xenograft; i.c. infusion): did not significantly affect BBB permeability
- Delivery of [14C]-labeled AIB, dextran and carboplatin across the BTB (intracerebral RG2 tumors): significantly enhanced delivery
